Data on two compounds can be found in patent US12661354B2, “DRG-MDM2-4 for use as a novel mouse double minute 2 (MDM2) inhibitor” (BAHCESEHIR UNIVERSITESI, priority 2020, dated 2026).

Broadly, the IC50 is the point on the concentration scale where inhibition reaches its midpoint. High values mean weaker potency in that assay, low ones greater potency in that assay.

One test has as its system MDA-MB231 cell lines. The experiment in a line: MTT cell viability assay (IC50). The test is classed as cell-based. The settings on record: Homo sapiens, MDA-MB-231; MDA-MB231, single dose of treatment, 10^−9 to 10^−4 M, 570 nm absorbance. As to the method: (§1) HCT 116 colon cancer and MDA-MB231 breast cancer cell lines are used in cell culture experiments.
(§2) Cells were treated with high-glucose DMEM medium (Biosera) supplemented with 10% FBS (Gibco) and 1× penicillin/streptomycin (Multicell). The assay was designed to contain 10,000 cells for each well of 24-well cell culture plates before being treated with inhibitors.
(§3) Compound of formula I was dissolved with DMSO as 20 mM stock. 24 hours later, the solution was diluted in DMEM with 10% FBS and final concentration of vehicle DMSO was 0.5% at maximum. Therefore, the vehicle group included 0.5% DMSO concentration in experiments. Intensive cultivation of cells causes a decrease in proliferation capacity.
The MTT cell viability assay was used to detect values of half-maximal inhibitory concentration (IC50). Different concentrations of compound of formula I ranging between 10^−9 to 10^−4 M were tested on MDA-MB231 cell lines with single dose of treatment. 570 nm absorbance values were recorded and IC50 values were calculated by dose response-inhibition curves and nonlinear regression analysis on Graphpad Prism 8 software. IC50 value of compound of formula I was determined to be 24 μm (FIG. 1).
In general terms: Formazan colour is commonly taken as a measure of viable cells.

Test [1] concerns HCT 116 colon cancer and MDA-MB231 breast cancer cell lines. Nature of the test: MTT cell proliferation assay. In kind it is cell-based. The settings on record: for cytotoxicity at 100 µM: read-out: cell viability decreased. As to the method:
as §1, §2, §3
For proliferation inhibition analysis, cells were seeded in 24 well plates at 1×10^4 cells/well cells overnight without drug treatment. During the cell proliferation experiments, we performed five days of treatment in each cell line and repeated the experiments three times to check each experiment. No significant difference in cell viability was observed after the third day. Therefore, cells with different drug concentrations were treated for two days. After 48 hours, MTT was applied to the cells and incubated at 37° C. for 4 hours, formazan was solubilized with DMSO (Sigma-Aldrich, St. Louis, USA) and absorbance was measured at 570 nm.
Molecule concentration was 100 μM, the lower concentrations were not shown. Vehicle represents the groups treated with only %0,5 DMSO and Untreated represents no molecule treated group. Molecule responses were evaluated by cell viability which is obtained by spectrophotometric analysis of cells upon MTT treatment at 12 h, 24 h, 48 h and 72 h. […] Statistical significance in graphs was determined by comparing each treatment group with DMSO control using ANOVA testing and significance is considered as p<0.001 (FIG. 2).

In a further test the test system is HCT-116 cells. Nature of the test: Microscopic evaluation of HCT-116 cells. In kind it is cell-based. From the text:
Cells were photographed and observed under microscope for three days.
As a result, cell viability decreased by 40% at the end of the first day and reached 60% at the end of the third day. Any cell proliferation change and apoptotic cell morphology were not observed in the untreated and vehicle groups. Moreover, differences in cell morphology were also observed.

The target of a further test is MDM2 protein (Homo sapiens, UniProt Q00987). Particulars: MDM2 protein versus natural p53 peptide; cited from earlier work.

Read-outs that look alike come from different tables or passages of the source.

MDM2 protein, sequence (Q00987 whole entry, species assumed): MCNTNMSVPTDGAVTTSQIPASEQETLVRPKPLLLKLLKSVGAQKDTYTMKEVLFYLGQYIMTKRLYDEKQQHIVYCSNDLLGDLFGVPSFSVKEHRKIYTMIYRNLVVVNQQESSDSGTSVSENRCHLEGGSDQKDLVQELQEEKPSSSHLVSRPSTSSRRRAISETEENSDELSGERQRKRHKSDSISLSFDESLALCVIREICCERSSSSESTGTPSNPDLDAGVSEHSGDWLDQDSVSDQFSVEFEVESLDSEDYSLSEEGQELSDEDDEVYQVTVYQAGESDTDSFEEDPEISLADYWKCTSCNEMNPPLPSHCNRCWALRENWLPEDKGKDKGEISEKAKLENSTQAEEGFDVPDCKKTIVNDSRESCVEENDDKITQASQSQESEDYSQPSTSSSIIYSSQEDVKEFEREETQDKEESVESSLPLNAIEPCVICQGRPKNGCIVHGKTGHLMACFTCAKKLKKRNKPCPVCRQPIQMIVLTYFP

As for `Cc1cc(=O)c(C(=O)NCCc2c[nH]c3ccccc23)nn1-c1cccc(C(F)(F)F)c1` [compound of formula I], in the test with MDA-MB231 cell lines, the IC50 is 24 µM. Further, the “cell viability compared to vehicle and untreated groups” value in test [1] (100 μM, 12 h, 24 h, 48 h and 72 h, ANOVA, p<0.001) is reported as “statistically significant difference”. The cytotoxicity at 100 µM in test [1] (end of the first day) came to 40%; in test [1] (end of the third day), 60%. The “morphology of apoptotic cells, onset” value with HCT-116 cells (100 μM concentration) is reported as “cells having the morphology of apoptotic cells were observed starting from the 3rd hour”. In addition, the “apoptotic activity, onset” value in the test with HCT-116 cells (HCT-116, microscopy) is on record as “clear apoptotic activity from the twelfth hour”. Also, the “proliferation and cell structures under microscope” value in the test with HCT-116 cells (HCT-116, observed for three days, versus vehicle and untreated) was “reduced proliferation and showed apoptotic cell structures”.

For the compound MI-319, the “binding affinity relative to natural p53 peptide” value on MDM2 protein is given as 500 fold.
